# Laboratory results reported in patent US20210070866A1, “Pharmaceutical Composition For Preventing Or Treating Tissue Adhesion Comprising Integrin a2ß1 Inhibitors” (KOREA UNIVERSITY RESEARCH AND BUSINESS FOUNDATION, priority 2019, published 2021).
# How the values were obtained:
# [1] = target: integrin α2β1 (Homo sapiens, UniProt P17301); details: according to manufacturer's instructions; read-out: half maximal effective concentration (EC50); cited from earlier work
# [2] = system: co-cultured hDMCs; experiment: Adhesion assay of co-cultured hDMCs to ECM components after integrin α2β1 inhibitor treatment; type: cell-based, human; details: 130 nM, 37° C., 30 min
# Description: Adhesion assays identifying ECM components adhering to hDMC were performed using CytoSelect 48-well cell adhesion assay kits (Cell Biolabs Inc., San Diego, Calif.).
# After detachment of naïve hDMCs and MΦ-co-cultured hDMCs, cell suspensions were prepared in serum-free DMEM. A total of 1.5×10^3 cells in 150 μl serum-free medium were added to each well and incubated for 1 hour at 37° C. After removal of the medium, the cells were washed four times with 150 μl PBS.
# Cell staining and protein extraction were performed according to the manufacturer's instructions. Cellular adhesion was assessed by measuring the optical density at 560 nm on a Gemini XPS Microplate Reader (Molecular Devices, Sunnyvale, Calif.).
# For an adhesion assay for the functional validation of integrin α2β1, the co-cultured hDMCs were incubated with 130 nM BTT 3033 at 37° C. for 30 min. After incubation, an adhesion assay was performed as described above.
# [3] = system: hDMCs; experiment: Cytotoxicity assay of BTT 3033 (cell viability assay, WST); type: cell-based, human; details: for Viability (A.U.): 37° C., 90 min
# Description: To evaluate cell viability, EZ-Cytox cell viability assay kit (Daeillab Service Ltd., Seoul, Republic of Korea) was used according to the manufacturer's instructions. Water-soluble tetrazolium salt (WST) reagent was added to each well. After 1 hour of incubation, the absorbance of the supernatant was measured at the wavelength of 450 nm on a microplate absorbance reader. The viability was assessed by normalized absorbance values.
# For cytotoxicity assay of BTT 3033, hDMCs were treated with BTT 3033 in a dose dependent manner and incubated at 37° C. for 90 min. After incubation, cell viability assay was performed.
# integrin α2β1, sequence (P17301 30-1181): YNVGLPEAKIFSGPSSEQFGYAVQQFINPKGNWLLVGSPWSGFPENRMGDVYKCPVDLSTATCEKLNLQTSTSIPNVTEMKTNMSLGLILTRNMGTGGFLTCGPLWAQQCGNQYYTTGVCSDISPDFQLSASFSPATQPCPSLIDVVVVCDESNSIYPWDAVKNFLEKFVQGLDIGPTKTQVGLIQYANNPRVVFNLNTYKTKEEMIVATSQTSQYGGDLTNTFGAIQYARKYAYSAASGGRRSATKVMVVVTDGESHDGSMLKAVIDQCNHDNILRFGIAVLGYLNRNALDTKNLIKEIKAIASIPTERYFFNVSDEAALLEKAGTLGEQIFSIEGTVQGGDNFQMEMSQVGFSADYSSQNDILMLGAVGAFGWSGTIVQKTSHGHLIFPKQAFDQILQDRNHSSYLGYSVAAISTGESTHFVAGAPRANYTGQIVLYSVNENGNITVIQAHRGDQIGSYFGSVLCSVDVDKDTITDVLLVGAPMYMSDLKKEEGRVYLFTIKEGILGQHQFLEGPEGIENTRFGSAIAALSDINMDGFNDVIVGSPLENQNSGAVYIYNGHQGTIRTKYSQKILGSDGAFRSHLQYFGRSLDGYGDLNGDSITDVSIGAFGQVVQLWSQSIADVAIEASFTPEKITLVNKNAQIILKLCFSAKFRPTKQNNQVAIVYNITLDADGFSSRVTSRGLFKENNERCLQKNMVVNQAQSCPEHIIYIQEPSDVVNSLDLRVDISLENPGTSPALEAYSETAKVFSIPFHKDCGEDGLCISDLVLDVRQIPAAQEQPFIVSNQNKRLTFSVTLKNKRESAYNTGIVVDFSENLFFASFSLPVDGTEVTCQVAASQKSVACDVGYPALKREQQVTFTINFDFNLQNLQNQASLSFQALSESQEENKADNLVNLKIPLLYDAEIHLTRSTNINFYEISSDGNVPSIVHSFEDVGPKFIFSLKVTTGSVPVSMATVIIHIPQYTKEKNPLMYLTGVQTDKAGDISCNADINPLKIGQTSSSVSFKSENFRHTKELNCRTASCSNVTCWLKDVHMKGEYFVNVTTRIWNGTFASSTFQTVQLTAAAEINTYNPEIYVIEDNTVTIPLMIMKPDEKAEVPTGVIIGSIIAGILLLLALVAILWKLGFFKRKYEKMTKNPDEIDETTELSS
# integrin α2β1, sequence (P05556 21-798 partner): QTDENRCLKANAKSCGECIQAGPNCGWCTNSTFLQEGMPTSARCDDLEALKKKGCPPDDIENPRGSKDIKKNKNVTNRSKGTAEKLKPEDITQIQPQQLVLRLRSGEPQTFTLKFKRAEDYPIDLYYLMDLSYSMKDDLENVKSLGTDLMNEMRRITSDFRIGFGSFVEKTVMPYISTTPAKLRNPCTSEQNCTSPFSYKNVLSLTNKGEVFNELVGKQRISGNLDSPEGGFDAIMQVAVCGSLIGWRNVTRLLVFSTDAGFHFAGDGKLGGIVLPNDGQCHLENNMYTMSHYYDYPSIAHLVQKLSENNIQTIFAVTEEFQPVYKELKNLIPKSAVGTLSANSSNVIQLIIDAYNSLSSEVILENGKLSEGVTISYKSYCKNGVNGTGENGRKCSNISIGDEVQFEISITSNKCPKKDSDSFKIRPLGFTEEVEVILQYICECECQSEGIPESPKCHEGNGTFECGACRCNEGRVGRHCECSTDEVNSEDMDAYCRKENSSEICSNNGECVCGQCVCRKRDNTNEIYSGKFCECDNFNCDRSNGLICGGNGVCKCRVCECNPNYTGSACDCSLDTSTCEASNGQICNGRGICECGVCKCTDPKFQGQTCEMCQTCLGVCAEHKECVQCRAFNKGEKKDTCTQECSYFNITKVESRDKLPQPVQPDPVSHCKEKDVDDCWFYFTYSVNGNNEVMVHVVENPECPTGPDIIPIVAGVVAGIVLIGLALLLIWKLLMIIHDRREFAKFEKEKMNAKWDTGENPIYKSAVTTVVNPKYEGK
structure (smiles),measurement,setting,value
"CN(c1ccc(NC(=O)Nc2ccccc2)cc1)S(=O)(=O)c1cnn(-c2ccc(F)cc2)c1 [BTT 3033, 1-(4-Fluorophenyl)-N-methyl-N-[4[[(phenylamino)carbonyl]amino]phenyl]-1H-pyrazole-4-sulfonamide]",EC50,[1],130 nM
same,adhesion of co-cultured hDMCs to collagen I,[2]; un-treated 0.43±0.03,0.27±0.04
same,adhesion of co-cultured hDMCs to collagen IV,[2]; un-treated 0.44±0.08,0.28±0.08
same,reduction of adhesion of co-cultured hDMCs to collagen I,"[2]; vs un-treated, p<0.001",37.8%
same,reduction of adhesion of co-cultured hDMCs to collagen IV,"[2]; vs un-treated, p=0.057",35.7%
same,Viability (A.U.),[3]; BTT 3033 16.25 nM,0.896 ± 0.090 A.U.
same,Viability (A.U.),[3]; BTT 3033 32.50 nM,0.844 ± 0.099 A.U.
same,Viability (A.U.),[3]; BTT 3033 65.00 nM,0.899 ± 0.075 A.U.
same,Viability (A.U.),[3]; BTT 3033 130.00 nM,0.800 ± 0.054 A.U.
same,Viability (A.U.),[3]; BTT 3033 260.00 nM,0.854 ± 0.081 A.U.
same,Viability (A.U.),[3]; BTT 3033 520.00 nM,0.827 ± 0.069 A.U.
same,cytotoxicity,[3]; concentration from 16.25 to 520.00 nM,less than 20.0%
